Experimental data: the OligoGym collection
Several values for one entry are separate records, joined by “and”; a condition that tells them apart may be missing. Identical values can stand only once. After the bases stand the sugars from the 5' end (letter, count) and the backbone: PS all phosphorothioate, else s phosphorothioate and o phosphodiester by linkage. Methylation of C is not given here. e = 2'-O-(2-methoxyethyl) (MOE); k = constrained ethyl (cEt); d = 2'-deoxy (DNA)

Target: APOL1
Conditions: ASO

| Sequence | target mRNA inhibition (A431, 2 µM) [%] | target mRNA inhibition (A431, 1 µM) | target mRNA inhibition (A431, 0.0625 µM) [%] | target mRNA inhibition (A431, 0.25 µM) | further results |
| --- | --- | --- | --- | --- | --- |
| GTATTGTTTTTGTGGG (sugars kdddddkekekddddd, PS) | 77 | – | – | – | – |
| GTATTTCTTGATGTGG (sugars kkddddekekeddddd, PS) | 96 | 96% | – | – | target mRNA inhibition (A431, 0.04 µM): 58% |
| GTATTTCTTGATGTGG (sugars kkkddddkekekdddd, PS) | 73 | – | – | – | – |
| GTCCTTACTGCAGTTT (sugars k4 d9 k3, PS) | – | 93% | 60 | 83% | – |
| GTGAGTATTGTTTTTG (sugars kkddddkekekddddd, PS) | 88 | – | – | – | – |
| GTTATATTTGATCCTC (sugars kekddddeekkddddd, PS) | 99 | 98% | 71 | 91% | target mRNA inhibition (A431, 0.0156 µM): 37%; target mRNA inhibition (A431, 0.04 µM): 31% |
| GTTATATTTGATCCTC (sugars kkddddkdkdkddddd, PS) | 93 | 89% | 38 | 68% | target mRNA inhibition (A431, 0.0156 µM): 9% |
| GTTATATTTGATCCTC (sugars kkkddddkekeddddd, PS) | 98 | 96% | 65 | 88% | target mRNA inhibition (A431, 0.0156 µM): 32% |
| GTTATGAAATTATTGG (sugars k2 d4 e3 k2 d5, PS) | 54 | – | – | – | – |
| GTTATGAAATTATTGG (sugars k3 d4 k3 e1 d5, PS) | 96 | 93% | 56 | 85% | target mRNA inhibition (A431, 0.0156 µM): 21% |
| GTTATGAAATTATTGG (sugars kkkddddkdkdkdddd, PS) | 91 | – | – | – | – |
| GTTATGAAATTATTGG (sugars kkkddddkekekdddd, PS) | 79 | – | – | – | – |
| GTTCAAAAGCAGCATT (sugars k3 d5 k3 d5, PS) | 90 | – | – | – | – |
| GTTCAAAAGCAGCATT (sugars k4 d9 k3, PS) | – | – | – | – | target mRNA inhibition (A431, 0.04 µM): 15% and 11% |
| GTTCAAAAGCAGCATT (sugars kekddddeekkddddd, PS) | 89 | – | – | – | – |
| GTTCAAAAGCAGCATT (sugars kkddddekekeddddd, PS) | 82 | – | – | – | – |
| GTTCAAAAGCAGCATT (sugars kkddddkekekddddd, PS) | 60 | – | – | – | – |
| GTTCAAAAGCAGCATT (sugars kkddddkekekkdddd, PS) | 34 | – | – | – | – |
| GTTCTAACTCTTGGGC (sugars kkddddkekekddddd, PS) | 61 | – | – | – | – |
| GTTCTAACTCTTGGGC (sugars kkkddddkekekdddd, PS) | 37 | – | – | – | – |

| Sequence | target mRNA inhibition (A431, 2 µM) [%] | target mRNA inhibition (A431, 1 µM) | target mRNA inhibition (A431, 0.0625 µM) [%] | target mRNA inhibition (A431, 0.25 µM) | further results |
| --- | --- | --- | --- | --- | --- |
| GTTTTGTAAGTGCAAC (sugars kkddddkekekddddd, PS) | 88 | – | – | – | – |
| GTTTTGTTGCACCCTC (sugars k4 d9 k3, PS) | – | 95% | 65 | 82% | – |
| TATATTTGATCCTCAA (sugars kdddddkekekddddd, PS) | 89 | – | – | – | – |
| TATCAGATGGGTACTT (sugars k3 d4 k3 e1 d5, PS) | 69 | – | – | – | – |
| TATGGAATTGCAGATA (sugars k4 d9 k3, PS) | – | 74% | 8 | 46% | – |
| TATTCTCATGGTACAG (sugars k2 d4 e3 k2 d5, PS) | 71 | – | – | – | – |
| TATTCTCATGGTACAG (sugars kkkddddkekeddddd, PS) | 68 | – | – | – | – |
| TCAGATGGGTACTTCT (sugars kkddddkekekddddd, PS) | 82 | – | – | – | – |
| TCCTTATGCTTACTCC (sugars k4 d9 k3, PS) | – | 93% | 50 | 80% | – |
| TCTATTAGAGGGCTAG (sugars k2 d4 e3 k2 d5, PS) | 67 | – | – | – | – |
| TCTCATGGTACAGGAG (sugars kkddddkekekkdddd, PS) | 26 | – | – | – | – |
| TGAGTATTGTTTTTGT (sugars k3 d4 k3 e1 d5, PS) | 95 | 94% | 69 | 88% | target mRNA inhibition (A431, 0.0156 µM): 43% |
| TGAGTATTGTTTTTGT (sugars kkkddddkekeddddd, PS) | 92 | 90% | 47 | 74% | target mRNA inhibition (A431, 0.0156 µM): 16% |
| TGGAAATGCCAAAGTC (sugars k4 d9 k3, PS) | – | 96% | 62 | 88% | – |
| TGGGAATTATGGAATT (sugars k2 d4 e3 k2 d5, PS) | 63 | – | – | – | – |
| TGGTTCAAAAGCAGCA (sugars k4 d9 k3, PS) | – | 94% | 60 | 84% | – |
| TGTAAGTGCAACCAAT (sugars kddddkekekeddddd, PS) | 67 | – | – | – | – |
| TGTCTTGCAAGGTTGT (sugars k4 d9 k3, PS) | – | 84% | 57 | 73% | – |
| TGTGTTTAGGCATTCA (sugars k4 d9 k3, PS) | – | 65% and 86% | – | 61% and 86% | – |
